Assay results as given in PubChem BioAssay (NCI).
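A five-concentration, 48-hour dose response in 96-well plates underlies each endpoint, interpolated linearly between surrounding concentrations. TGI is the concentration that stops growth completely.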

Legend:
Assay in all cases: NCI anticancer screen, dose series, 48 h
A549 NSCLC = test system: A549 NSCLC
SF-539 CNS = test system: SF-539 CNS
LOX IMVI melanoma = test system: LOX IMVI melanoma
OVCAR-4 ovarian = test system: OVCAR-4 ovarian
KM20L2 colon = test system: KM20L2 colon
NCI-H23 lung = test system: NCI-H23 lung
M14 melanoma = test system: M14 melanoma
HCT-116 colon = test system: HCT-116 colon
NCI-H226 lung = test system: NCI-H226 lung
MALME-3M melanoma = test system: MALME-3M melanoma
CAKI-1 renal = test system: CAKI-1 renal
EKVX NSCLC = test system: EKVX NSCLC
COLO 205 colon = test system: COLO 205 colon
UACC-257 melanoma = test system: UACC-257 melanoma
SN12C renal = test system: SN12C renal
KM12 colon = test system: KM12 colon
LXFL 529 NSCLC = test system: LXFL 529 NSCLC
DMS 114 small cell lung = test system: DMS 114 small cell lung
MOLT-4 leukemia = test system: MOLT-4 leukemia
HCT-15 colon = test system: HCT-15 colon
M19-MEL melanoma = test system: M19-MEL melanoma
UACC-62 melanoma = test system: UACC-62 melanoma
RPMI-8226 leukemia = test system: RPMI-8226 leukemia
SF-295 CNS = test system: SF-295 CNS
HT29 colon = test system: HT29 colon
SW-620 colon = test system: SW-620 colon
SNB-19 CNS = test system: SNB-19 CNS
K-562 leukemia = test system: K-562 leukemia
SK-MEL-5 melanoma = test system: SK-MEL-5 melanoma
OVCAR-5 ovarian = test system: OVCAR-5 ovarian
UO-31 renal = test system: UO-31 renal
IGROV1 ovarian = test system: IGROV1 ovarian
HOP-92 NSCLC = test system: HOP-92 NSCLC
OVCAR-8 ovarian = test system: OVCAR-8 ovarian
HOP-18 NSCLC = test system: HOP-18 NSCLC
ACHN renal = test system: ACHN renal
A498 renal = test system: A498 renal
TK-10 renal = test system: TK-10 renal
HOP-62 NSCLC = test system: HOP-62 NSCLC
HCC-2998 colon = test system: HCC-2998 colon
SK-MEL-28 melanoma = test system: SK-MEL-28 melanoma
DMS 273 small cell lung = test system: DMS 273 small cell lung
SF-268 CNS = test system: SF-268 CNS
HL-60(TB) leukemia = test system: HL-60(TB) leukemia
786-0 renal = test system: 786-0 renal
NCI-H460 lung = test system: NCI-H460 lung
RXF 393 renal = test system: RXF 393 renal
OVCAR-3 ovarian = test system: OVCAR-3 ovarian
RXF-631 renal = test system: RXF-631 renal
SNB-78 CNS = test system: SNB-78 CNS
SNB-75 CNS = test system: SNB-75 CNS
CCRF-CEM leukemia = test system: CCRF-CEM leukemia

COc1ccc(C[C@]23CCC(=O)N2CCc2cc(OC)c(O)cc23)cc1O was tested. Which TGI (A549 NSCLC) did it give?
The TGI was > 100 µM.

And the TGI (SF-539 CNS)?
Its TGI is > 100 µM.

What about the TGI (LOX IMVI melanoma) of the same compound?
Its TGI is > 100 µM.

What about the TGI (OVCAR-4 ovarian) of the same compound?
The TGI was > 100 µM.

And the TGI (KM20L2 colon)?
The TGI was > 100 µM.

And the TGI (NCI-H23 lung)?
Its TGI is > 100 µM.

And the TGI (M14 melanoma)?
Its TGI is > 100 µM.

What about the TGI (HCT-116 colon) of the same compound?
Its TGI is > 100 µM.

What about the TGI (NCI-H226 lung) of the same compound?
Its TGI is > 100 µM.

What about the TGI (MALME-3M melanoma) of the same compound?
The TGI was > 100 µM.

And the TGI (CAKI-1 renal)?
Its TGI is > 100 µM.

What about the TGI (EKVX NSCLC) of the same compound?
The TGI was > 100 µM.

And the TGI (COLO 205 colon)?
The TGI was > 100 µM.

What about the TGI (UACC-257 melanoma) of the same compound?
Its TGI is > 100 µM.

What about the TGI (SN12C renal) of the same compound?
The TGI was > 100 µM.

What about the TGI (KM12 colon) of the same compound?
The TGI was > 100 µM.

What about the TGI (LXFL 529 NSCLC) of the same compound?
The TGI was > 100 µM.

What about the TGI (DMS 114 small cell lung) of the same compound?
Its TGI is > 100 µM.

What about the TGI (MOLT-4 leukemia) of the same compound?
The TGI was > 100 µM.

What about the TGI (HCT-15 colon) of the same compound?
The TGI was > 100 µM.

What about the TGI (M19-MEL melanoma) of the same compound?
Its TGI is > 100 µM.

And the TGI (UACC-62 melanoma)?
Its TGI is > 100 µM.

And the TGI (RPMI-8226 leukemia)?
The TGI was > 100 µM.

What about the TGI (SF-295 CNS) of the same compound?
The TGI was > 100 µM.

What about the TGI (HT29 colon) of the same compound?
The TGI was > 100 µM.

And the TGI (SW-620 colon)?
The TGI was > 100 µM.

And the TGI (SNB-19 CNS)?
The TGI was > 100 µM.

What about the TGI (K-562 leukemia) of the same compound?
The TGI was > 100 µM.

And the TGI (SK-MEL-5 melanoma)?
Its TGI is > 100 µM.

What about the TGI (OVCAR-5 ovarian) of the same compound?
Its TGI is > 100 µM.

What about the TGI (UO-31 renal) of the same compound?
The TGI was > 100 µM.

And the TGI (IGROV1 ovarian)?
The TGI was > 100 µM.

And the TGI (HOP-92 NSCLC)?
Its TGI is > 100 µM.

What about the TGI (OVCAR-8 ovarian) of the same compound?
Its TGI is 78.6 µM.

And the TGI (HOP-18 NSCLC)?
The TGI was > 100 µM.

What about the TGI (ACHN renal) of the same compound?
The TGI was > 100 µM.

And the TGI (A498 renal)?
The TGI was > 100 µM.

And the TGI (TK-10 renal)?
Its TGI is > 100 µM.

And the TGI (HOP-62 NSCLC)?
Its TGI is > 100 µM.

What about the TGI (HCC-2998 colon) of the same compound?
Its TGI is > 100 µM.

What about the TGI (SK-MEL-28 melanoma) of the same compound?
The TGI was > 100 µM.

What about the TGI (DMS 273 small cell lung) of the same compound?
The TGI was > 100 µM.

And the TGI (SF-268 CNS)?
Its TGI is > 100 µM.

What about the TGI (HL-60(TB) leukemia) of the same compound?
Its TGI is > 100 µM.

What about the TGI (786-0 renal) of the same compound?
Its TGI is > 100 µM.

What about the TGI (NCI-H460 lung) of the same compound?
The TGI was > 100 µM.

And the TGI (RXF 393 renal)?
The TGI was > 100 µM.

What about the TGI (OVCAR-3 ovarian) of the same compound?
The TGI was > 100 µM.

What about the TGI (RXF-631 renal) of the same compound?
Its TGI is > 100 µM.

And the TGI (SNB-78 CNS)?
Its TGI is > 100 µM.

And the TGI (SNB-75 CNS)?
The TGI was > 100 µM.

And the TGI (CCRF-CEM leukemia)?
Its TGI is > 100 µM.
